Experiments:
GST-JAK2(808-1132) = biological target: T1, GST-JAK2(808-1132) (Homo sapiens, UniProt O60674); test: JAK2 kinase assay (Caliper mobility shift, LabChip 3000); format: biochemical
T1 construct: GST-JAK2(808-1132); purchased Invitrogen (Carlsbad, USA) #4288
In short: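 Eight-point compound series (final 10–0.003 μM) tested on purchased GST-JAK2 kinase domain (808-1132). Peptide FITC-JAK3tide plus ATP reacted 60 min, 30 °C, then quenched with EDTA; turnover from charge-based separation of substrate and product.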

[1] = test system: JAK1/JAK2-dependent nuclear translocation of STAT1-GFP in HT1080 fibrosarcoma cells; test: STAT1 nuclear translocation assay (Cellomics), IFN-γ stimulated HT1080 STAT1-GFP cells; format: cell-based; settings: Homo sapiens, HT-1080, STAT1 translocation pathway
In short: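 IC50 derived from percent nuclear STAT1-GFP translocation, computed from nuclear minus cytoplasmic GFP intensity against untreated baseline and DMSO-stimulated control. Stable HT1080 STAT1-GFP cells received compound (0.003–10 μM, 0.1% DMSO) 30 min ahead of a 2 h 100 ng/ml IFN-γ stimulus, then fixation and Hoechst nuclear masking.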

T1 sequence (O60674 808-1132): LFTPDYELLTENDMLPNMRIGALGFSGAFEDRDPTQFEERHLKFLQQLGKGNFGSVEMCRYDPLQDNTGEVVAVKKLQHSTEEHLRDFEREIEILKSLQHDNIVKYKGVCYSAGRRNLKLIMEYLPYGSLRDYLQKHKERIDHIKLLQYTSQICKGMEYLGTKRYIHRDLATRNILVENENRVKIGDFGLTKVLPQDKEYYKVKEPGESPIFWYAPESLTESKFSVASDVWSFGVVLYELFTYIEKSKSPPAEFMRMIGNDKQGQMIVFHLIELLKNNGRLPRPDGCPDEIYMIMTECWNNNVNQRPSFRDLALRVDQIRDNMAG

| SMILES | IC50 (GST-JAK2(808-1132)) | IC50 [1] |
| --- | --- | --- |
| CC(=O)N1CCN(Cc2ccc(Nc3ncc4ccn(-c5ccc(C(=O)N6CCOCC6)cc5)c4n3)cc2)CC1 [Example 338, 1-[4-(4-{7-[4-(Morpholine-4-carbonyl)-phenyl]-7H-pyrrolo[2,3-d]pyrimidin-2-ylamino}-benzyl)-piperazin-1-yl]-ethanone] | 0.0039 µM | 0.135 µM |
| Cc1cc(-n2ccc3cnc(Nc4ccc(OC(C)C)cc4)nc32)ccc1C(=O)N1CCOCC1 [Example 100, {4-[2-(4-Isopropoxy-phenylamino)-pyrrolo[2,3-d]pyrimidin-7-yl]-2-methyl-phenyl}-morpholin-4-yl-methanone] | < 0.003 µM | 0.51 µM |
| CC(C)Oc1ccc(Nc2ncc3ccn(-c4ccc(N5CCNCC5=O)cc4)c3n2)cc1 [Example 104, 1-{4-[2-(4-Isopropoxy-phenylamino)-pyrrolo[2,3-d]pyrimidin-7-yl]-phenyl}-piperazin-2-one] | 0.0036 µM | 0.865 µM |
| CCN1CCN(C(=O)C2(c3ccc(-n4ccc5cnc(Nc6ccc(C)c(C)c6)nc54)cc3)CC2)CC1 [Example 159, (1-{4-[2-(3,4-Dimethyl-phenylamino)-pyrrolo[2,3-d]pyrimidin-7-yl]-phenyl}-cyclopropyl)-(4-ethyl-piperazin-1-yl)-methanone] | 0.0465 µM | 1.12 µM |
| N#Cc1ccc(Nc2ncc3ccn(-c4cc(F)c(CN5CCOCC5)c(F)c4)c3n2)cc1 [Example 136, 4-[7-(3,5-Difluoro-4-morpholin-4-ylmethyl-phenyl)-7H-pyrrolo[2,3-d]pyrimidin-2-ylamino]-benzonitrile] | 0.011 µM | 0.775 µM |
| CC(C)Oc1ccc(Nc2ncc3ccn(-c4ccc(CC(=O)N5CCOCC5)cc4)c3n2)cc1 [Example 102, 2-{4-[2-(4-Isopropoxy-phenylamino)-pyrrolo[2,3-d]pyrimidin-7-yl]-phenyl}-1-morpholin-4-yl-ethanone] | < 0.003 µM | 0.275 µM |
| CCN1CCN(Cc2ccc(-n3ccc4cnc(Nc5ccc(F)c(C)c5)nc43)cc2F)CC1 [Example 124, {7-[4-(4-Ethyl-piperazin-1-ylmethyl)-3-fluoro-phenyl]-7H-pyrrolo[2,3-d]pyrimidin-2-yl}-(4-fluoro-3-methyl-phenyl)-amine] | 0.085 µM | 2.16 µM |
| CS(=O)(=O)c1ccc(-n2ccc3cnc(Nc4ccc(CN5CCOCC5)cc4)nc32)cc1 [Example 44, [7-(4-Methanesulfonyl-phenyl)-7H-pyrrolo[2,3-d]pyrimidin-2-yl]-(4-morpholin-4-ylmethyl-phenyl)-amine] | < 0.003 µM | 0.143 µM |
| C[C@@H]1CN(Cc2ccc(Nc3ncc4ccn(-c5cc(F)c(CN6CCOCC6)c(F)c5)c4n3)cc2)[C@@H](C)CN1 (racemic) [Example 260, [7-(3,5-Difluoro-4-morpholin-4-ylmethyl-phenyl)-7H-pyrrolo[2,3-d]pyrimidin-2-yl]-[4-((2S,5R)-2,5-dimethyl-piperazin-1-ylmethyl)-phenyl]-amine] | 0.005 µM | 0.28 µM |
| CN1CCN(Cc2cccc(Nc3ncc4ccn(-c5cc(F)c(CN6CCOCC6)c(F)c5)c4n3)c2)CC1 [Example 199, [7-(3,5-Difluoro-4-morpholin-4-ylmethyl-phenyl)-7H-pyrrolo[2,3-d]pyrimidin-2-yl]-[3-(4-methyl-piperazin-1-ylmethyl)-phenyl]-amine] | < 0.003 µM | 0.222 µM |
| CCOc1ccc(Nc2ncc3ccn(-c4ccc(CN5CCOCC5)cc4)c3n2)cc1OCC [Example 147, (3,4-Diethoxy-phenyl)-[7-(4-morpholin-4-ylmethyl-phenyl)-7H-pyrrolo[2,3-d]pyrimidin-2-yl]-amine] | < 0.003 µM | 0.033 µM |
| OCCN1CCN(c2ccc(Nc3ncc4ccn(-c5cc(F)c(CN6CCOCC6)c(F)c5)c4n3)cn2)CC1 [Example 265, 2-(4-{5-[7-(3,5-Difluoro-4-morpholin-4-ylmethyl-phenyl)-7H-pyrrolo[2,3-d]pyrimidin-2-ylamino]-pyridin-2-yl}-piperazin-1-yl)-ethanol] | < 0.003 µM | 0.04 µM |
| COCc1ccc(Nc2ncc3ccn(-c4ccc(C(=O)N5CCOCC5)cc4)c3n2)cc1 [Example 239, {4-[2-(4-Methoxymethyl-phenylamino)-pyrrolo[2,3-d]pyrimidin-7-yl]-phenyl}-morpholin-4-yl-methanone] | 0.0039 µM | 0.66 µM |
| CN1CCN(C(=O)c2c(F)cc(-n3ccc4cnc(Nc5ccc(CN6CCS(=O)(=O)CC6)cc5)nc43)cc2F)CC1 [Example 190, (4-{2-[4-(1,1-Dioxido-thiomorpholin-4-ylmethyl)-phenylamino]-pyrrolo[2,3-d]pyrimidin-7-yl}-2,6-difluoro-phenyl)-(4-methyl-piperazin-1-yl)-methanone] | 0.0052 µM | 0.439 µM |
| Cc1ccc(Nc2ncc3ccn(-c4ccc(CC(=O)N5CCN(C)CC5)cc4)c3n2)cc1C [Example 148, 2-{4-[2-(3,4-Dimethyl-phenylamino)-pyrrolo[2,3-d]pyrimidin-7-yl]-phenyl}-1-(4-methyl-piperazin-1-yl)-ethanone] | 0.0079 µM | 0.047 µM |
| Cc1cc(Nc2ncc3ccn(-c4ccc(CN5CCOCC5)cc4)c3n2)ccc1F [Example 123, (4-Fluoro-3-methyl-phenyl)-[7-(4-morpholin-4-ylmethyl-phenyl)-7H-pyrrolo[2,3-d]pyrimidin-2-yl]-amine] | 0.028 µM | 0.802 µM |
| O=S1(=O)CCN(Cc2c(F)cc(-n3ccc4cnc(Nc5ccccn5)nc43)cc2F)CC1 [Example 181, {7-[4-(1,1-Dioxido-thiomorpholin-4-ylmethyl)-3,5-difluoro-phenyl]-7H-pyrrolo[2,3-d]pyrimidin-2-yl}-pyridin-2-yl-amine] | 0.0155 µM | 16.6 µM |
| O=C(c1ccc(Nc2ncc3ccn(-c4ccc(CN5CCS(=O)(=O)CC5)cc4)c3n2)cc1)N1CCOCC1 [Example 153, (4-{7-[4-(1,1-Dioxido-thiomorpholin-4-ylmethyl)-phenyl]-7H-pyrrolo[2,3-d]pyrimidin-2-ylamino}-phenyl)-morpholin-4-yl-methanone] | < 0.003 µM | 0.0175 µM |
| CS(=O)(=O)c1ccc(-n2ccc3cnc(Nc4cccc(Cn5ccnc5)c4)nc32)cc1 [Example 47, (3-Imidazol-1-ylmethyl-phenyl)-[7-(4-methanesulfonyl-phenyl)-7H-pyrrolo[2,3-d]pyrimidin-2-yl]-amine] | < 0.003 µM | 0.073 µM |
| Cc1cc(Nc2ncc3ccn(-c4ccc(C(=O)N5CCN(C)CC5)c(F)c4)c3n2)ccc1F [Example 88, {2-Fluoro-4-[2-(4-fluoro-3-methyl-phenylamino)-pyrrolo[2,3-d]pyrimidin-7-yl]-phenyl}-(4-methyl-piperazin-1-yl)-methanone] | 0.0089 µM | 3.27 µM |
| CC(C)Oc1ccc(Nc2ncc3ccn(-c4ccc(CCN5CCOCC5)cc4)c3n2)cc1 [Example 115, (4-Isopropoxy-phenyl)-{7-[4-(2-morpholin-4-yl-ethyl)-phenyl]-7H-pyrrolo[2,3-d]pyrimidin-2-yl}-amine] | 0.016 µM | 0.715 µM |
| CC(C)Oc1ccc(Nc2ncc3ccn(-c4ccc(CN5CCS(=O)(=O)CC5)c(Cl)c4)c3n2)cc1 [Example 113, {7-[3-Chloro-4-(1,1-dioxido-thiomorpholin-4-ylmethyl)-phenyl]-7H-pyrrolo[2,3-d]pyrimidin-2-yl}-(4-isopropoxy-phenyl)-amine] | 0.0042 µM | 0.108 µM |
| Cc1ccc(Nc2ncc3ccn(-c4ccc(CC(=O)N5CCN(CCO)CC5)cc4)c3n2)cc1C [Example 212, 2-{4-[2-(3,4-Dimethyl-phenylamino)-pyrrolo[2,3-d]pyrimidin-7-yl]-phenyl}-1-[4-(2-hydroxy-ethyl)-piperazin-1-yl]-ethanone] | < 0.003 µM | 0.105 µM |
| CC(C)Oc1ccc(Nc2ncc3ccn(-c4cc(F)c(CN5CCOCC5)c(F)c4)c3n2)cc1 [Example 126, [7-(3,5-Difluoro-4-morpholin-4-ylmethyl-phenyl)-7H-pyrrolo[2,3-d]pyrimidin-2-yl]-(4-isopropoxy-phenyl)-amine] | 0.011 µM | 1.62 µM |
| CC(C)Oc1ccc(Nc2ncc3ccn(-c4cc(F)c(C(=O)N5CCOCC5)c(F)c4)c3n2)cc1 [Example 82, {2,6-Difluoro-4-[2-(4-isopropoxy-phenylamino)-pyrrolo[2,3-d]pyrimidin-7-yl]-phenyl}-morpholin-4-yl-methanone] | 0.0041 µM | 0.86 µM |
| CN1CCN(Cc2cccc(Nc3ncc4ccn(-c5ccc(S(C)(=O)=O)cc5)c4n3)c2)CC1 [Example 93] | < 0.003 µM | 0.191 µM |
| CCN1CCN(Cc2ccc(Nc3ncc4ccn(-c5cc(F)c(CN6CCOCC6)c(F)c5)c4n3)cc2)CC1 [Example 196, [7-(3,5-Difluoro-4-morpholin-4-ylmethyl-phenyl)-7H-pyrrolo[2,3-d]pyrimidin-2-yl]-[4-(4-ethyl-piperazin-1-ylmethyl)-phenyl]-amine] | < 0.003 µM | 0.176 µM |
| Cc1ccc(Nc2ncc3ccn(-c4cc(F)c(CN5CCNC(=O)C5)c(F)c4)c3n2)cc1CN1CCN(C)CC1 [Example 343, 4-(2,6-Difluoro-4-{2-[4-methyl-3-(4-methyl-piperazin-1-ylmethyl)-phenylamino]-pyrrolo[2,3-d]pyrimidin-7-yl}-benzyl)-piperazin-2-one] | ≤ 0.003 µM | 0.151 µM |
| CCN1CCN(c2ccc(Nc3ncc4ccn(-c5ccc(C(=O)N6CCOCC6)c(F)c5)c4n3)cc2C)CC1 [Example 293, (4-{2-[4-(4-Ethyl-piperazin-1-yl)-3-methyl-phenylamino]-pyrrolo[2,3-d]pyrimidin-7-yl}-2-fluoro-phenyl)-morpholin-4-yl-methanone] | < 0.003 µM | 0.008 µM |

— patent US8420657B2 (Novartis AG, priority 2008, dated 2013)
